Measured values reported in ChEMBL document CHEMBL5678816, “A Next-Generation TRK Kinase Inhibitor Overcomes Acquired Resistance to Prior TRK Kinase Inhibition in Patients with TRK Fusion-Positive Solid Tumors” (Cancer Discov, 2017).
Activity calls are given as the source filed them. The rule behind the calls is not given here.

Columns and labels:
[1] = Oral bioavailability in rat at 10 mg/kg administered as 1% carboxymethylcellulose 0.5% Tween 80 formulation by LC-MS analysis; type: ADME, organism-based; conditions: in vivo
[2] = Clearance in monkey at 1 mg/kg, iv administered as 20% hydroxypropyl-beta-cyclodextrin formulation by LC-MS analysis; type: ADME, organism-based, Macaca mulatta; conditions: rhesus monkey, in vivo
[3] = Toxicity in nu/nu NCr mouse implanted with mouse NIH3T3 cells harboring extracellular domain deleted TRKA assessed as body weight loss at 30 to 300 mg/kg, po administered twice daily for 10 days relative to control; type: organism-based; conditions: in vivo, 240 h, dose 30-300 mg/kg, time 10 day
[4] = tested on: SK-MEL-28; assay: Inhibition of cell proliferation in human SK-MEL-28 cells upto 10 umol/L incubated for 72 hrs by DAPI staining based analysis; type: functional; conditions: dose <= 10.0 µmol/L
[5] = Cmax in pediatric patient with recurrent ETV6-NTRK3-rearranged infantile fibrosarcoma at 60 mg administered twice a day as liquid formulation for 8 day by LC-MS/MS analysis; type: ADME; conditions: human, in vivo
[6] = biological target: Proto-oncogene tyrosine-protein kinase receptor Ret (Homo sapiens) (UniProt P07949); assay: Inhibition of Ret (unknown origin) at 1 uM in presence of ATP relative to control; values are per cent of control
Sequence of Proto-oncogene tyrosine-protein kinase receptor Ret (Homo sapiens) (P07949 whole entry): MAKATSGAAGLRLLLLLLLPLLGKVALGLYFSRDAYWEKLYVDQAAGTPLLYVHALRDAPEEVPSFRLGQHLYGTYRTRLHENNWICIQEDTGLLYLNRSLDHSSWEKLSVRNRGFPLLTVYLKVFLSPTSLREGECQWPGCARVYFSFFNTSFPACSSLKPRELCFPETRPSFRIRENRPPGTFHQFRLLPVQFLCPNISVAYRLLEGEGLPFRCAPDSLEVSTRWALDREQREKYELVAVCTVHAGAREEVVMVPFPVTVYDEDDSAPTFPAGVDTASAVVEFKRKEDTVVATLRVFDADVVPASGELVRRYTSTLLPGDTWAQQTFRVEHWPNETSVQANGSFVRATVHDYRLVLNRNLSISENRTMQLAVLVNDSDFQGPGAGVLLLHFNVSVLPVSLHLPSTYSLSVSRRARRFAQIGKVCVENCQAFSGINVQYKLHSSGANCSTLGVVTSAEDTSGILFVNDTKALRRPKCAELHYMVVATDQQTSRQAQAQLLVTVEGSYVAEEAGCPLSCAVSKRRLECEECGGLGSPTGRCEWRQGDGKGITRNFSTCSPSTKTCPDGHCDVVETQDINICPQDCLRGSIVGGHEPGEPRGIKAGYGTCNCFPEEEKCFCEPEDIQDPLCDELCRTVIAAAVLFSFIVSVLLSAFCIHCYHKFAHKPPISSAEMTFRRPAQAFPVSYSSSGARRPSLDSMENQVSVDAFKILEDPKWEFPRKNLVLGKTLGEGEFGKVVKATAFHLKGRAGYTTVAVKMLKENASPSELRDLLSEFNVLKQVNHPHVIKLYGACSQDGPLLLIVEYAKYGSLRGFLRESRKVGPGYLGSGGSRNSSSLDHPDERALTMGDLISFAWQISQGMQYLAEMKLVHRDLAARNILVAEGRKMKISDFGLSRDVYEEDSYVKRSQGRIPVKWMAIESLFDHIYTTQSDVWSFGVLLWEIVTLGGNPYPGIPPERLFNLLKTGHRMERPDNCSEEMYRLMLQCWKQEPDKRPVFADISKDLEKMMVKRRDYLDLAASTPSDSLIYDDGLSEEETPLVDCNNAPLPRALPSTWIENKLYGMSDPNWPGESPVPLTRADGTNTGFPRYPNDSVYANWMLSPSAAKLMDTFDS

[7] = biological target: Myotonin-protein kinase (Homo sapiens) (UniProt Q09013); assay: Inhibition of DMPK (unknown origin) at 1 uM in presence of ATP relative to control; values are per cent of control
[8] = biological target: Serine/threonine-protein kinase mTOR (Homo sapiens) (UniProt P42345); assay: Inhibition of MTOR (unknown origin) at 1 uM in presence of ATP relative to control; values are per cent of control
[9] = biological target: Serine/threonine-protein kinase D1 (Homo sapiens) (UniProt Q15139); assay: Inhibition of PKD1 (unknown origin) at 1 uM in presence of ATP relative to control; values are per cent of control
[10] = biological target: Serine/threonine-protein kinase VRK2 (Homo sapiens) (UniProt Q86Y07); assay: Inhibition of VRK2 (unknown origin) at 1 uM in presence of ATP relative to control; values are per cent of control
Sequence of Serine/threonine-protein kinase VRK2 (Homo sapiens) (Q86Y07 whole entry): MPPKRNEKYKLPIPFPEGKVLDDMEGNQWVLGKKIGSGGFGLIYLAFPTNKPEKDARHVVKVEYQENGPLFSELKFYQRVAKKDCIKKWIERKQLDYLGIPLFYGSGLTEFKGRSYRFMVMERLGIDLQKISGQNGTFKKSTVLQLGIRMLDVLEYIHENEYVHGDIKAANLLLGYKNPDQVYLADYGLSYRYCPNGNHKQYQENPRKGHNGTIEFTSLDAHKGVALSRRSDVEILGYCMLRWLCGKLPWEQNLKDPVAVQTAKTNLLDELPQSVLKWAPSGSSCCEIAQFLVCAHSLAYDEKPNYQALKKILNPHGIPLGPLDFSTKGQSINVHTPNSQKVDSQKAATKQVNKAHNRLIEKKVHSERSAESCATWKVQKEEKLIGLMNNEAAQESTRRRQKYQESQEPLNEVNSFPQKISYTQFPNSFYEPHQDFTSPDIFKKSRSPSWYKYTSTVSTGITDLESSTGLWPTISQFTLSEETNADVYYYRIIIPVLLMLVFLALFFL

[11] = biological target: Serine/threonine-protein kinase 4 (Homo sapiens) (UniProt Q13043); assay: Inhibition of MST1 (unknown origin) at 1 uM in presence of ATP relative to control; values are per cent of control
Sequence of Serine/threonine-protein kinase 4 (Homo sapiens) (Q13043 whole entry, looked up): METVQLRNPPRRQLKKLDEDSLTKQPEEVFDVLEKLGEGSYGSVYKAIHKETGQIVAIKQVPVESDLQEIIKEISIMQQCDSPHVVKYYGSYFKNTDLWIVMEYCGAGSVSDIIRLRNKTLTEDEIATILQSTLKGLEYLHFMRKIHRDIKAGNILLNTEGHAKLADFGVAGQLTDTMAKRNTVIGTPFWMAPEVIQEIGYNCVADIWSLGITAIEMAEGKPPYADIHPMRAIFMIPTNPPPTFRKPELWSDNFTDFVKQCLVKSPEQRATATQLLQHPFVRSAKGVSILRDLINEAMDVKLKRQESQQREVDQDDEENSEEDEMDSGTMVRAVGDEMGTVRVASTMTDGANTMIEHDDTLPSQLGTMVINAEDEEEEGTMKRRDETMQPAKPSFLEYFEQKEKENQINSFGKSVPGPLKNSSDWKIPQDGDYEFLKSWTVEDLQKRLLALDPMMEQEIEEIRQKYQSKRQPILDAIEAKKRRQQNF

[12] = biological target: Serine/threonine-protein kinase PAK 5 (Homo sapiens) (UniProt Q9P286); assay: Inhibition of PAK5 (unknown origin) at 1 uM in presence of ATP relative to control; values are per cent of control
Sequence of Serine/threonine-protein kinase PAK 5 (Homo sapiens) (Q9P286 whole entry, looked up): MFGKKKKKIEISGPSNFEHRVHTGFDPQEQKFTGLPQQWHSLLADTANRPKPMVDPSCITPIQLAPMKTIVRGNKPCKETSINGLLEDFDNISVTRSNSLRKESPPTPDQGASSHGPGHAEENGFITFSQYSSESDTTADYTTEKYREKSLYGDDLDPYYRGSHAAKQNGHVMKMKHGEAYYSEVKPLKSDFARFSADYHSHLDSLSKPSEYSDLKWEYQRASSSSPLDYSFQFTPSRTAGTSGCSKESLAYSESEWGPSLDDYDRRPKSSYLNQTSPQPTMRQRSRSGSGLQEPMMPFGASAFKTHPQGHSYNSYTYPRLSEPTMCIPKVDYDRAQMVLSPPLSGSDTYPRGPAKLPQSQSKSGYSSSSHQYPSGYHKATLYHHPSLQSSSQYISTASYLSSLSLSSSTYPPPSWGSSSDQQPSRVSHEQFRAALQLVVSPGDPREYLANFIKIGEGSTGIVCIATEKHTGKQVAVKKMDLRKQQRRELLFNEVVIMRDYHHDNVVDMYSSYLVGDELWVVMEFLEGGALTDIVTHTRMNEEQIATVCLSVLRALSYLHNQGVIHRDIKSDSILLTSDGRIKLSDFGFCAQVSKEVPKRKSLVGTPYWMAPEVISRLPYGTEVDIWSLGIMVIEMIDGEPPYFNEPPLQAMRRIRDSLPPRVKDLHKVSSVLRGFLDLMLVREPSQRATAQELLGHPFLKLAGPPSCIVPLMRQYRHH

[13] = biological target: Serine/threonine-protein kinase TAO1 (Homo sapiens) (UniProt Q7L7X3); assay: Inhibition of TAO1 (unknown origin) at 1 uM in presence of ATP relative to control; values are per cent of control
[14] = biological target: Discoidin domain-containing receptor 2 (Homo sapiens) (UniProt Q16832); assay: Inhibition of DDR2 (unknown origin) at 1 uM in presence of ATP relative to control; values are per cent of control
[15] = biological target: Serine/threonine-protein kinase 17A (Homo sapiens) (UniProt Q9UEE5); assay: Inhibition of DRAK1 (unknown origin) at 1 uM in presence of ATP relative to control; values are per cent of control
[16] = biological target: MAP kinase-interacting serine/threonine-protein kinase 2 (Homo sapiens) (UniProt Q9HBH9); assay: Inhibition of MKNK2 (unknown origin) at 1 uM in presence of ATP relative to control; values are per cent of control
Sequence of MAP kinase-interacting serine/threonine-protein kinase 2 (Homo sapiens) (Q9HBH9 whole entry, looked up): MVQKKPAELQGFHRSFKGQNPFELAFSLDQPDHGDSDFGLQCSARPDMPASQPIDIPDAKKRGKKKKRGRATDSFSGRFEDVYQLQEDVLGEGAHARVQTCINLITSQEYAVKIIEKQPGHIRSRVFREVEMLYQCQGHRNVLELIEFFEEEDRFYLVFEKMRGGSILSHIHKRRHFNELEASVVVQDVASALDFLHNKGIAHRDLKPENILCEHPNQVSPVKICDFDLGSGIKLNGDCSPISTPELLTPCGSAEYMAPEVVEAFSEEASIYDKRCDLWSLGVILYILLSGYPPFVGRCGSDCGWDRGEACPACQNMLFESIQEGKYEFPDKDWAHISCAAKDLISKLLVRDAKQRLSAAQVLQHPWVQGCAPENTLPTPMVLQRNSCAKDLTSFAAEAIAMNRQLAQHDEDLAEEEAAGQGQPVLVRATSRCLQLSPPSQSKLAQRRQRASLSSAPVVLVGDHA

[17] = biological target: Ephrin type-A receptor 3 (Homo sapiens) (UniProt P29320); assay: Inhibition of EphA3 (unknown origin) at 1 uM in presence of ATP relative to control; values are per cent of control
Sequence of Ephrin type-A receptor 3 (Homo sapiens) (P29320 whole entry): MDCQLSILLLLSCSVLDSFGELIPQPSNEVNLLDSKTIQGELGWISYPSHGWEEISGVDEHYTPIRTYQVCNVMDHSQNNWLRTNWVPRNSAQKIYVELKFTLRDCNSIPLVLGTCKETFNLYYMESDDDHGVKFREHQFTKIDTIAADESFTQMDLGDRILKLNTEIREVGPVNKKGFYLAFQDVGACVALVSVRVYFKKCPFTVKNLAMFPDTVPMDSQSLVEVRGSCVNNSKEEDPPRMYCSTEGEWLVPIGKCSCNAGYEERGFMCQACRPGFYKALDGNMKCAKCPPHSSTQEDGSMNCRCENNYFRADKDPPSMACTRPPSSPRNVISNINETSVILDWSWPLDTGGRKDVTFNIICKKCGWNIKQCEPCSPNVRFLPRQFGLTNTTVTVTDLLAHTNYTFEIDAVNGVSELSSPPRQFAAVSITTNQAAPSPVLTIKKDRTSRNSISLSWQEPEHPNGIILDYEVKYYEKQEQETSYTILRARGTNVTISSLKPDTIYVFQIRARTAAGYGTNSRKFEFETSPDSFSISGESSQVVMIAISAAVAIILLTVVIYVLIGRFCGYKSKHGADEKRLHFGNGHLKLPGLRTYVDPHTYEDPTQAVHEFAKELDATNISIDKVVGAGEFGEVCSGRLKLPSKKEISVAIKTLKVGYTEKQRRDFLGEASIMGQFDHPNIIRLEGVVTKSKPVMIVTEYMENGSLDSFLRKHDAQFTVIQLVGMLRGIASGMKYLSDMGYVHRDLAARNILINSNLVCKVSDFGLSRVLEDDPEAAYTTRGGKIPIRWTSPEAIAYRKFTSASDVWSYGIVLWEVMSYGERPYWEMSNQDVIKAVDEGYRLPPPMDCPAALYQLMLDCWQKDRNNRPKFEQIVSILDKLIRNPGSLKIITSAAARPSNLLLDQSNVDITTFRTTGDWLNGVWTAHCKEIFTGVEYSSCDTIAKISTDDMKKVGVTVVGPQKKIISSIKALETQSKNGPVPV

[18] = biological target: Ephrin type-B receptor 2 (Homo sapiens) (UniProt P29323); assay: Inhibition of EphB2 (unknown origin) at 1 uM in presence of ATP relative to control; values are per cent of control
[19] = biological target: Ephrin type-B receptor 3 (Homo sapiens) (UniProt P54753); assay: Inhibition of EphB3 (unknown origin) at 1 uM in presence of ATP relative to control; values are per cent of control
[20] = biological target: RAF proto-oncogene serine/threonine-protein kinase (Homo sapiens) (UniProt P04049); assay: Inhibition of C-RAF (unknown origin) at 1 uM in presence of ATP relative to control; values are per cent of control
[21] = biological target: Interleukin-1 receptor-associated kinase 1 (Homo sapiens) (UniProt P51617); assay: Inhibition of IRAK1 (unknown origin) at 1 uM in presence of ATP relative to control; values are per cent of control
Sequence of Interleukin-1 receptor-associated kinase 1 (Homo sapiens) (P51617 whole entry, looked up): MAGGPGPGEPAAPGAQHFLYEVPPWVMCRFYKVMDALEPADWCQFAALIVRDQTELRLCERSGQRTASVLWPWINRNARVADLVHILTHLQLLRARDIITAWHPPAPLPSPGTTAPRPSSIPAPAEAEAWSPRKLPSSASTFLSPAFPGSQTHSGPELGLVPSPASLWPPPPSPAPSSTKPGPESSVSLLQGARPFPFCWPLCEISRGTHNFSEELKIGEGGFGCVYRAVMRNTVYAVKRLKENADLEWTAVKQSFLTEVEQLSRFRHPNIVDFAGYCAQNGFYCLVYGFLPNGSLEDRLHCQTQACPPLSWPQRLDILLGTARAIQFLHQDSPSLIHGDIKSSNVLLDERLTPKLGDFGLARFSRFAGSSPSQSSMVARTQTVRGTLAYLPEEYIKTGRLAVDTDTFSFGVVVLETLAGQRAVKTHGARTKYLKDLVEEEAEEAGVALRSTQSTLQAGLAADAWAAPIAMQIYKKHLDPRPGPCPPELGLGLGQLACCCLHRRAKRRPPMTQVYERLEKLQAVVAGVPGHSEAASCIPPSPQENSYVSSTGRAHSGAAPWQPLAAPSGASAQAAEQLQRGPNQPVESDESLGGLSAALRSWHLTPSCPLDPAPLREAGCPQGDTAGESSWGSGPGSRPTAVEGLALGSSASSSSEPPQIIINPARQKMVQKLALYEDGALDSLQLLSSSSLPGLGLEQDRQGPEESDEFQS

[22] = biological target: Calcium/calmodulin-dependent protein kinase type 1D (Homo sapiens) (UniProt Q8IU85); assay: Inhibition of CAMK1d (unknown origin) at 1 uM in presence of ATP relative to control; values are per cent of control
[23] = biological target: Rho-associated protein kinase 2 (Homo sapiens) (UniProt O75116); assay: Inhibition of ROCK-II (unknown origin) at 1 uM in presence of ATP relative to control; values are per cent of control
[24] = biological target: Inhibitor of nuclear factor kappa-B kinase subunit alpha (Homo sapiens) (UniProt O15111); assay: Inhibition of IKKalpha (unknown origin) at 1 uM in presence of ATP relative to control; values are per cent of control
[25] = biological target: Protein kinase C beta type (Homo sapiens) (UniProt P05771); assay: Inhibition of PKCbetall (unknown origin) at 1 uM in presence of ATP relative to control; values are per cent of control
[26] = biological target: cGMP-dependent protein kinase 1 (Homo sapiens) (UniProt Q13976); assay: Inhibition of PRKG1beta (unknown origin) at 1 uM in presence of ATP relative to control; values are per cent of control
[27] = biological target: Casein kinase I isoform gamma-3 (Homo sapiens) (UniProt Q9Y6M4); assay: Inhibition of CK1gamma3 (unknown origin) at 1 uM in presence of ATP relative to control; values are per cent of control

bioavailability [1]: 24%
clearance [2]: 23.3 mL/min/kg
Cmax [5]: 415 ng/mL
residual activity [6]: 80.5%
residual activity [7]: 106%
residual activity [8]: 95%
residual activity [9]: 106%
residual activity [10]: 98%
residual activity [11]: 95.5%
residual activity [12]: 104%
residual activity [13]: 102%
residual activity [14]: 93%
residual activity [15]: 113%
residual activity [16]: 100%
residual activity [17]: 104%
residual activity [18]: 81%
residual activity [19]: 101%
residual activity [20]: 92.5%
residual activity [21]: 106%
residual activity [22]: 116%
residual activity [23]: 105%
residual activity [24]: 96.5%
residual activity [25]: 90.5%
residual activity [26]: 114%
residual activity [27]: 113%
Compound: C[C@@H]1CCc2ncc(F)cc2[C@H]2CCCN2c2ccn3ncc(c3n2)C(=O)N1 [SELITRECTINIB]
Activity [3]: < 5%
inhibition [4]: inactive
